We go through 62 compounds from a melting point compilation (Tetko et al.; mined from patent text by program, amines drawn as free bases though some values may be those of a salt).

By melting point is commonly meant the temperature, or range, at which the solid turns liquid. In the case of `CCOC(=O)c1ccc(-c2nc(COc3ccc(COc4nn(-c5ccccc5)cc4/C=C\c4csc(CC)n4)cc3OC)c(C)o2)s1`, the melting point lay in the range of 118 to 119 °C. The value for `C[Si](C)(C)/C=C/c1c(N)nc(C2CC2)nc1C(=O)O` was 146 to 149 °C. The value for `O=C(OCc1ccccc1)c1cc(C(=O)OCc2ccccc2)[nH]n1` was 120 °C; that for `CN1C(=O)[C@H](NC(=O)CCC2CCCCC2)[N+]([O-])=C(c2ccccc2)c2ccccc21` was 222 to 224 °C; that for `CCOC(=O)C(C#N)(CCBr)c1cc(OC)c(OC)c(OC)c1` (configuration not stated) was 76 to 77 °C.

For the compound `CCOC(=O)c1coc(-c2ccc(CCl)cc2)n1`, the melting point lay within 115 to 117 °C. For `CCOC(=O)c1cc(Cl)n2nc(C)nc2n1`, the melting point lay in the range of 134 to 136 °C. In the case of `Cc1noc(CC(=O)N(N)C(=O)c2ccco2)n1` it was 169 to 171 °C. Take `Cc1ccc2[nH]c(SCC(F)(F)F)nc2c1`: the melting point is 159 to 161 °C.

Turning to `O=C(Nc1ccccc1C(=NC1CCN(Cc2ccccc2)CC1)c1ccccc1)C(Cl)(Cl)Cl`, the melting point was 151 to 152 °C. The value for `CC(C)CCCC(C)C1CCC2C3CC=C4CC(OCCCCCCO)CCC4(C)C3CCC12C` (configuration not stated) was 75.9 to 81 °C; that for `CC(Sc1ccc(Cl)cc1Cl)C(=O)O` (racemic) was 95 to 98 °C.

For `COc1ccc(Cn2c(C(=O)O)c(-c3ccc4c(c3)OCO4)c3cc(OCc4ccccc4)ccc32)c(OCC(=O)O)c1`, the melting point lay in the range of 147 to 148 °C. In the case of `N#Cc1cc([N+](=O)[O-])ccc1NC(=O)c1cccc([N+](=O)[O-])c1` it was 205 to 206 °C; in that of `Cc1nnc(-c2ccc3ncn(C4CCN(C(=O)c5ccccc5)CC4)c3c2)o1`, 158 to 159 °C; in that of `Cc1cnc2c(c1)S(=O)(=O)N(Cc1ccccc1)C2=O`, 167 to 170 °C. In turn, `Cc1nn(-c2cc([N+](=O)[O-])c(Cl)cc2F)c(Cl)c1Br` had a melting point of 135 to 137 °C. The value for `CNC(=O)C(Cc1ccc(OC)cc1)NC(=O)C(CC(C)C)C(CC(=O)NCC(=O)OC(C)(C)C)SC(C)=O` (configuration not stated) was 192 to 194 °C; that for `COc1ccc(C=CC(=O)Nc2cnc3ccc(Cl)cc3c2-c2ccccc2Cl)cc1OC` was 208 to 209 °C. In the case of `COc1cccc(C(=O)c2c(N)sc3c2CCN(Cc2ccccc2)C3)c1OC` it was 172 to 173 °C. Turning to `c1ccc2c3c(cnc2c1)OCCN3`, the melting point lay within 175 to 176 °C.

Turning to `C=C(CC(N)=O)C(=O)O`, the melting point was in the range of 153 to 154 °C. Consider `Cn1cnc(COc2nn3c(-c4ccccc4)nnc3c(Cl)c2N2CCCC2)n1`, for which the melting point lay within 198 to 199 °C.

For `COC(=O)/C=C/c1cc(-c2ccc(C)cc2)cs1`, the melting point is 116 to 118 °C. In the case of `c1ccc(-c2ccc(-c3nc4n(n3)CCCc3ccccc3-4)cc2)cc1` it was 135 to 137 °C; in that of `CCc1cc2c(s1)-n1c(nnc1CNC(=O)c1cc3ccccc3n1CC(=O)O)CN=C2c1ccccc1Cl`, 222 to 223 °C; in that of `C[C@H]1CC[C@H]2C(C)(C)[C@@H](O)CC[C@]23Oc2c(c(O)cc4c2CN(S(=O)(=O)c2ccccc2)C4)C[C@]13C`, 150 to 153 °C. The value for `N#Cc1cc(Br)cc(CO)c1` was 108 to 109 °C. Compound `CC1(C)CC(N(C=O)CCc2ccccc2)CC(C)(C)N1` registered a melting point of 86 °C. The value for `Cc1cc2c(cc1Br)C(O)CC(C)(C)O2` (configuration not stated) was 92 to 93 °C. In the case of `CCCC(=O)c1cnc2c(OC)cccc2c1Nc1ccccc1OC` it was 159 to 161 °C; in that of `COc1cc2c(cc1Cl)C(c1ccccc1Cl)C(=O)N2` (configuration not stated), 243 to 247 °C; in that of `O=C(CCC1CCC(=O)N1)Nc1ccncc1` (configuration not stated), 187 to 188 °C. In turn, `CCCCCCCCCCCCCCCCCCOc1ccc(C(=O)C=Cc2ccc(SC)cc2)cc1` showed a melting point of 104 °C. The value for `O=C(Nc1cc(Cl)ccc1C(=O)O)NS(=O)(=O)c1ccc(OCCN2CCN(c3ccccc3)CC2)cc1` was 177 to 179 °C. For `Cn1ncc(C(=O)c2ccc(S(C)(=O)=O)cc2Cl)c1O`, the melting point lay in the range of 272 to 275 °C.

Compound `CN1N=C(c2ccc(F)cc2)c2ccc(F)cc2CS1(=O)=O` showed a melting point of 205 to 206 °C. The value for `CNc1nc(-c2cccc(NC(=O)C3CC3)c2)c2cc(OC)c(OC)cc2n1` was 205 to 207 °C. The compound `Oc1ccc(Oc2cccc(Cl)n2)cc1` came in with a melting point of 125 to 130 °C.

For `O=C1CCC(N2Cc3c(OCc4ccc(Cc5nc6ccccc6[nH]5)cc4)cccc3C2=O)C(=O)N1` (configuration not stated), the melting point lay within 203 to 205 °C. The value for `COc1ccc(Cl)c(Oc2cnc(-c3ncccn3)nc2C=O)c1` was 211 °C; that for `COCCc1nc2c(N)nc3c(c2n1CCCNS(C)(=O)=O)CCCC3` was 150 to 152 °C. In the case of `CCCCC[C@@H](O)C=C[C@@H]1[C@@H](CC(=O)O)[C@@H](O)C[C@H]1O` it was 105 to 107 °C; in that of `Cc1nc(-c2ccccn2)c2nc(-c3ccccc3)cc-2[nH]1`, 182 to 183 °C; in that of `COc1ccc([N+](=O)[O-])c(NC(C)=O)c1`, 129 °C.

Consider `COC1CC(n2cc(C=CBr)c(=O)n(C)c2=O)OC1CF` (configuration not stated), for which the melting point is 95 °C. Compound `O=C(O)c1cccc(-c2ccc3c(c2)N(Cc2cc(Cl)cc(Cl)c2)CC3)c1` gave a melting point of 207 to 208 °C. `CCOCOC1(C(=O)COC(C)=O)C(C)CC2C3CC(C)C4=CC(=O)C=CC4(C)C3C(O)CC21C` (configuration not stated) came in with a melting point of 137 to 139 °C. The value for `CC(C)=CC(=O)Nc1c(C(O)(C(F)(F)F)C(F)(F)F)ccc2ccccc12` was 135 to 137 °C; that for `CC(C)(C)c1ccc(C[C@H]2NC(=O)O[C@H]2c2ccc(F)cc2)cc1` (racemic) was 218 to 219 °C; that for `Cc1ncc2n1-c1ccccc1C(c1ccccc1)=NC2` was 180 to 182 °C. The value for `CO[C@@H]1CN(CC2OCCO2)CC[C@@H]1NC(=O)c1cc(Cl)c(N)c2c1OCC2` (relative stereo) was 149 °C. The value for `COC(=O)c1ccc(-c2ccc(OC)c3c2CC(C)(C)O3)cc1` was 116 to 122 °C; that for `COC(=O)c1c2n(c(C)cc1=O)CCCC2` was 169 to 172 °C; that for `Nc1nc(CN2C(=O)C3(COc4cc5c(cc43)OCO5)c3ccccc32)cs1` (configuration not stated) was 230 to 235 °C. In turn, `FC(F)(F)c1cccc(CSc2nnc(-c3ccc4nccn4c3)o2)c1` showed a melting point of 147 to 148 °C. The value for `CCOC(=O)N1C(=O)N(C(=O)OCc2ccccc2)C2(C1=O)C(=O)N(Cc1ccc(Cl)c(Cl)c1)c1ccccc12` (configuration not stated) was 128 to 131 °C. Compound `O=Cc1ccc(OCc2coc(-c3ccccc3)n2)cc1` came in with a melting point of 94 to 96 °C. `CC(=O)c1cc(CO)c(O)cc1O` came in with a melting point of 151 to 152 °C. The value for `CC(C)OC(=O)C=Cc1ccc(N)cc1` was 78 to 80 °C; that for `CC(C)(C)C(F)(F)c1ccc(C[C@@H](NC(=O)c2cccc3c(Cl)cccc23)[C@@H](O)c2cccc(Cl)c2)cc1` (racemic) was 99 to 101 °C; that for `N=C(NO)c1ccc(-c2cccc(-c3cn4cc(C(=N)NO)ccc4n3)c2)cc1` was 252 to 254 °C.
